According to patent publication US4672066A, “Derivatives of 4-acetyl-3-hydroxy-2-alkyl-phenoxycarboxylic acids” (Hoffmann-La Roche Inc., priority 1985, dated 1987):

Legend:
PAF [1] = molecular target: T1, PAF (Canis lupus familiaris, UniProt A0A8I3NSH0); assay: PAF Radioreceptor Binding Assay; settings: Table I; dog platelets, 3H-PAF
T1 construct: followed by 2×10^7 dog platelets; from tissue; host or cells: washed platelets from citrate-treated dog blood
T1 sequence (A0A8I3NSH0 1-343): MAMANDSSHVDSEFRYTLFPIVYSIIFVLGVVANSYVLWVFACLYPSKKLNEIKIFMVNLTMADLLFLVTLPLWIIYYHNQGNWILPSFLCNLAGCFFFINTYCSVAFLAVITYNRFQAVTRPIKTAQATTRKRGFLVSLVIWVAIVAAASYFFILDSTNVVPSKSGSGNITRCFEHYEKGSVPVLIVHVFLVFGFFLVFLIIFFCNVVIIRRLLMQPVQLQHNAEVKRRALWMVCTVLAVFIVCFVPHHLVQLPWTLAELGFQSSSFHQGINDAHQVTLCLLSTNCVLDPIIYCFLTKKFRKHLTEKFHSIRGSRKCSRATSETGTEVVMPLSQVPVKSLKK
Procedure: Platelet rich plasma is prepared by centrifugation of citrate-treated dog blood. Acidification to pH 6.5 with 0.15 M citric acid and centrifugation for 10 minutes at 1000 xg yields a platelet pellet which is then washed by resuspension in EDTA-Phosphate Buffered Saline (PBS) and recentrifuged. The washed platelet preparation is adjusted to 2×10^7 platelets/50 μl in 0.1% BSA-PBS. […] After mixing, incubating for 10 minutes at room temperature, and centrifuging for 1 minute in a Beckman Microfuge B (8000 xg), the pellet is removed by clipping off the tip of the tube, the platelets are solubilized with 200 μl of 50% methanol, and counted in 10 ml of Aquasol. […] Results obtained with representative compounds of the present invention in this assay are summarized hereinafter in Tables I, II and III.

SRS-A = assay: Guinea Pig Ileum, In Vitro (SRS-A antagonism); settings: Table I, read-out: SRS-A Antagonism IC50
Procedure: The guinea pig ileum bioassay system has been described by Orange and Austen, Adv. Immunol. 10: 104-144 ([…]). A 1.5 cm segment is removed from animals weighting 300-400 g. and suspended in an organ bath containing 10 ml. of Tyrodes solution with 10^-6 M atropine sulfate and 10^-6 M pyrilamine maleate. The bath is maintained at 37° C. and aerated with a mixture of 95% oxygen and 5% carbon dioxide. The SRS-A utilized in this screen is obtained by challenging chopped lung fragments from actively sensitized guinea pigs with egg albumin, in vitro. A dose-response curve to SRS-A challenge is established for the ileum. The dose of SRS-A which gives 50% of the maximal contraction (EC50) is then used for subsequent challenge. The drug concentration which inhibits, by 50%, the SRS-A induced constriction of the guinea pig ileum is determined.

leukotriene E4 (LTE4) = assay: LTE4-Induced Guinea Pig Bronchoconstriction Test; type: in vivo; settings: 10 mg/kg i.v.
Procedure: In this test system, the ability of a drug to inhibit the bronchoconstriction induced in guinea pigs by leukotriene E4 (LTE4) is measured. A maximally constrictory dose of LTE4 is injected into guinea pigs which have been pretreated with propranolol (0.1 mg/kg, i.v.) for 5 minutes prior to challenge. The bronchoconstriction (in cm H2 O) elicited in animals pretreated intravenously for 30 seconds (at 10 mg/kg) or orally for 2 hours (at 100 mg/kg) with the test drug prior to LTE4 challenge is compared to that elicited in the absence of the test compound to determine the in vivo activity of the drug.

PAF [2] = assay: PAF-Induced Rat Skin Wheal Test; type: in vivo, Sprague-Dawley rats; settings: for inhibition of PAF-induced rat skin wheal: 5 mg/kg i.v. (1 min. pretreatment)
Procedure: This test evaluates the ability of compounds to inhibit PAF-induced increases in vascular permeability in the skin of Sprague-Dawley rats. PAF induces a dose-dependent skin wheal response in this system over a dose range of 0.0001 to 1 pg/0.05 ml injection. The profound vasoactive activity of PAF is emphasized by the fact that the maximum skin wheal response is considerably greater than that obtained with LTE and an EC50 response is elicited at a 10-fold lower dose. For drug screening purposes, 5 ng of PAF is injected intradermally into anesthetized rats which had been pretreated for 30 minutes with an antihistamine (pyrilamine maleate, 50 mg/kg, i.p.) and an antiserotonin compound (methylsergide maleate, 4 mg/kg, i.p.). Immediately thereafter, the test compound is injected intravenously into the tail vein of the animal. This is followed by an intravenous injection of Evan's blue dye (0.5% in saline). Thirty minutes later the animals are sacrificed and the increase in vascular permeability induced by the migration of dye into the injection point in the skin is determined. For this purpose, rats are sacrificed by cervical dislocation, the dorsal skin is removed, the long and short axis of each […] is measured with a metric vernier caliper and the average diameter is obtained.

PAF [3] = assay: PAF-Induced Guinea Pig Bronchoconstriction Test; type: in vivo, guinea pig (Hartley); settings: for inhibition of PAF-induced bronchoconstriction: 1.0 mg/kg i.v., 1 min pretreatment
Procedure: Male guinea pigs (Hartley strain) weighing 300 to 500 g are anesthetized with urethane (2 g/kg) intraperitoneally and a polyethylene cannula is inserted into the jugular vein for drug administration. Tracheal pressure is recorded from a cannula inserted in the trachea and connected to a Statham pressure transducer. Propranolol (0.1 mg/kg) is administered intravenously five minutes before challenge with synthetic PAF, the animals's skeletal muscles are then paralyzed with succinylcholine (1.2 mg/kg i.v.), and the animal is respirated using a Harvard small animal respirator operating at 40 breaths/min and 2.5 cc stroke volume. Under these conditions PAF induces a dose-dependent increase in ventilatory pressure over a dose range of 0.5 to 5 pg/kg i.v. The bronchoconstrictive effect of PAF occurs at approximately a 10-fold lower dose than that obtained with LTE. For screening purposes animals are challenged with a single dose of PAF (10 pg/kg i.v.).
Test compounds are screened by either the intravenous route (1.0 mg/kg i.v., 1 min pretreatment) or oral route (100 mg/kg p.o., 2 hour pretreatment). The peak increase in ventilatory pressure (cm H2 O) is recorded for three control animals and five drug-treated animals and the percent inhibition determined.

SMILES	inhibition of LTE4-induced bronchoconstriction (leukotriene E4 (LTE4))	inhibition of PAF-induced rat skin wheal (PAF [2])	inhibition of PAF-induced bronchoconstriction (PAF [3])	also measured
CCCc1c(OCCCCCC(=O)NCCCCc2cccnc2)ccc(C(C)=O)c1O.Cl [Example 4, 6-(4-Acetyl-3-hydroxy-2-propylphenoxy)-N-[4-(3-pyridinyl)butyl]hexanamide hydrochloride]	95%	–	–	IC50 (PAF [1]): 0.7 µM; IC50 (SRS-A): 6 µM
CCCc1c(OCCCC#CC(=O)NCCCCc2cccnc2)ccc(C(C)=O)c1O [Example 21, 6-(4-Acetyl-3-hydroxy-2-propylphenoxy)-N-[4-(3-pyridinyl)butyl]-2-hexynamide]	–	62±3%	98±10%	–
CCCc1c(OCc2ccc(C(=O)NC(C)CCCc3cccnc3)cc2)ccc(C(C)=O)c1O (stereo not shown) [Example 34, 4-[(4-Acetyl-3-hydroxy-2-propylphenoxy)-methyl]-N-[1-methyl-4-(3-pyridinyl)butyl]benzamide]	–	63±4%	85±8%	–
CCCCCCCCCCCCCCCCOCC(COP(=O)([O-])OCC[N+](C)(C)C)OC(C)=O (stereo not shown) [PAF, reference compound]	–	–	–	EC50 response in skin wheal, dose lower than with LTE (PAF [2]; compared with LTE): 10 fold; bronchoconstrictive effect of PAF, dose lower than that with LTE (PAF [3]; i.v., compared with LTE): ~10 fold
CCCc1c(OCCCCCC(=O)OCCCc2cccnc2)ccc(C(C)=O)c1O.Cl [Example 28, 6-(4-Acetyl-3-hydroxy-2-propylphenoxy)-hexanoic acid, 3-(3-pyridinyl)propyl ester hydrochloride]	87%	–	–	–
